Measured values: the NIST ThermoML archive (doi:10.1016/j.fluid.2015.03.016)
“And” between values parts separate entries of the source, which are not always exact repeats. Equal entries are not always repeated.

Settings: Liquid, Vibrating wire viscometry

CCCCOC(=O)CCCCC(=O)OCCCC [dibutyl hexanedioate]
Settings	viscosity
333.15 K, 5090 kPa	2.366 mPa·s
333.15 K, 5100 kPa	2.361 mPa·s and 2.362 mPa·s
333.15 K, 5210 kPa	2.361 mPa·s and 2.365 mPa·s
333.15 K, 5220 kPa	2.366 mPa·s
333.15 K, 7790 kPa	2.42 mPa·s and 2.421 mPa·s
333.15 K, 7800 kPa	2.421 mPa·s
333.15 K, 10100 kPa	2.493 mPa·s
333.15 K, 10120 kPa	2.495 mPa·s
333.15 K, 10130 kPa	2.495 mPa·s
333.15 K, 10160 kPa	2.493 mPa·s
333.15 K, 14860 kPa	2.621 mPa·s
333.15 K, 15150 kPa	2.62 mPa·s
333.15 K, 15240 kPa	2.619 mPa·s
333.15 K, 15260 kPa	2.625 mPa·s
333.15 K, 20250 kPa	2.763 mPa·s
333.15 K, 20260 kPa	2.76 mPa·s
333.15 K, 20270 kPa	2.761 mPa·s
333.15 K, 20290 kPa	2.76 mPa·s
333.15 K, 29840 kPa	3.05 mPa·s
333.15 K, 29880 kPa	3.043 mPa·s
333.15 K, 30130 kPa	3.05 mPa·s
333.15 K, 30150 kPa	3.042 mPa·s
333.15 K, 30230 kPa	3.047 mPa·s
333.15 K, 39970 kPa	3.331 mPa·s
333.15 K, 40020 kPa	3.332 mPa·s
333.15 K, 40070 kPa	3.33 mPa·s
333.15 K, 40080 kPa	3.335 mPa·s
333.15 K, 49990 kPa	3.644 mPa·s
333.15 K, 50000 kPa	3.638 mPa·s and 3.636 mPa·s and 3.632 mPa·s
333.15 K, 61450 kPa	4.065 mPa·s
333.15 K, 61480 kPa	4.064 mPa·s
333.15 K, 61600 kPa	4.055 mPa·s
333.15 K, 61660 kPa	4.057 mPa·s
333.16 K, 2490 kPa	2.298 mPa·s
333.16 K, 2580 kPa	2.299 mPa·s
333.16 K, 5220 kPa	2.361 mPa·s
333.16 K, 7780 kPa	2.422 mPa·s
343.14 K, 20120 kPa	2.335 mPa·s and 2.332 mPa·s
343.14 K, 39830 kPa	2.803 mPa·s
343.14 K, 39840 kPa	2.809 mPa·s
343.14 K, 39860 kPa	2.807 mPa·s
343.14 K, 39870 kPa	2.804 mPa·s
343.14 K, 39880 kPa	2.81 mPa·s
343.14 K, 65480 kPa	3.489 mPa·s
343.14 K, 65500 kPa	3.484 mPa·s
343.15 K, 1100 kPa	1.917 mPa·s and 1.916 mPa·s
343.15 K, 1170 kPa	1.915 mPa·s
343.15 K, 1240 kPa	1.914 mPa·s
343.15 K, 1260 kPa	1.918 mPa·s and 1.915 mPa·s
343.15 K, 2480 kPa	1.949 mPa·s
343.15 K, 2500 kPa	1.945 mPa·s and 1.947 mPa·s
343.15 K, 2520 kPa	1.948 mPa·s
343.15 K, 2530 kPa	1.95 mPa·s
343.15 K, 2580 kPa	1.946 mPa·s
343.15 K, 4960 kPa	1.993 mPa·s
343.15 K, 4970 kPa	1.994 mPa·s
343.15 K, 4980 kPa	1.992 mPa·s
343.15 K, 4990 kPa	1.989 mPa·s
343.15 K, 7500 kPa	2.054 mPa·s
343.15 K, 7510 kPa	2.057 mPa·s and 2.059 mPa·s
343.15 K, 7520 kPa	2.056 mPa·s
343.15 K, 10030 kPa	2.118 mPa·s
343.15 K, 10040 kPa	2.117 mPa·s and 2.119 mPa·s
343.15 K, 10090 kPa	2.117 mPa·s
343.15 K, 15220 kPa	2.224 mPa·s
343.15 K, 15240 kPa	2.222 mPa·s
343.15 K, 15260 kPa	2.221 mPa·s
343.15 K, 20040 kPa	2.334 mPa·s
343.15 K, 20160 kPa	2.337 mPa·s
343.15 K, 20210 kPa	2.335 mPa·s
343.15 K, 20240 kPa	2.332 mPa·s
343.15 K, 20270 kPa	2.331 mPa·s
343.15 K, 20280 kPa	2.335 mPa·s
343.15 K, 30090 kPa	2.562 mPa·s
343.15 K, 30130 kPa	2.561 mPa·s
343.15 K, 30140 kPa	2.566 mPa·s
343.15 K, 30150 kPa	2.561 mPa·s and 2.564 mPa·s
343.15 K, 30160 kPa	2.566 mPa·s
343.15 K, 39830 kPa	2.806 mPa·s
343.15 K, 50080 kPa	3.08 mPa·s and 3.083 mPa·s
343.15 K, 65610 kPa	3.482 mPa·s
343.15 K, 65620 kPa	3.49 mPa·s
358.15 K, 2510 kPa	1.559 mPa·s
358.15 K, 2520 kPa	1.559 mPa·s and 1.56 mPa·s
358.15 K, 5050 kPa	1.594 mPa·s and 1.593 mPa·s
358.15 K, 5060 kPa	1.594 mPa·s and 1.595 mPa·s
358.15 K, 5240 kPa	1.601 mPa·s
358.15 K, 9930 kPa	1.688 mPa·s
358.15 K, 10010 kPa	1.69 mPa·s
358.15 K, 15060 kPa	1.769 mPa·s and 1.766 mPa·s and 1.764 mPa·s
358.15 K, 15100 kPa	1.768 mPa·s
358.15 K, 15130 kPa	1.765 mPa·s
358.15 K, 20130 kPa	1.863 mPa·s
358.15 K, 30280 kPa	2.045 mPa·s
358.15 K, 30290 kPa	2.042 mPa·s and 2.044 mPa·s
358.15 K, 30300 kPa	2.041 mPa·s
358.15 K, 30310 kPa	2.043 mPa·s
358.15 K, 30320 kPa	2.046 mPa·s
358.15 K, 39960 kPa	2.223 mPa·s
358.15 K, 39990 kPa	2.219 mPa·s
358.15 K, 40010 kPa	2.219 mPa·s
358.15 K, 40040 kPa	2.222 mPa·s
358.15 K, 40060 kPa	2.219 mPa·s
358.16 K, 1080 kPa	1.521 mPa·s
358.16 K, 1090 kPa	1.524 mPa·s and 1.523 mPa·s and 1.521 mPa·s
358.16 K, 2510 kPa	1.559 mPa·s
358.16 K, 2540 kPa	1.558 mPa·s
358.16 K, 5180 kPa	1.6 mPa·s
358.16 K, 5200 kPa	1.597 mPa·s
358.16 K, 5240 kPa	1.599 mPa·s
358.16 K, 7560 kPa	1.645 mPa·s and 1.644 mPa·s and 1.643 mPa·s
358.16 K, 20120 kPa	1.868 mPa·s and 1.866 mPa·s
358.16 K, 20130 kPa	1.868 mPa·s
358.16 K, 20160 kPa	1.863 mPa·s
358.16 K, 40080 kPa	2.223 mPa·s
358.16 K, 50160 kPa	2.426 mPa·s and 2.429 mPa·s
358.16 K, 50170 kPa	2.424 mPa·s and 2.427 mPa·s
358.16 K, 65550 kPa	2.761 mPa·s and 2.757 mPa·s and 2.758 mPa·s
373.14 K, 2490 kPa	1.265 mPa·s
373.14 K, 10000 kPa	1.376 mPa·s and 1.374 mPa·s
373.14 K, 15040 kPa	1.442 mPa·s
373.14 K, 15050 kPa	1.443 mPa·s
373.14 K, 29940 kPa	1.668 mPa·s
373.15 K, 1060 kPa	1.253 mPa·s
373.15 K, 1120 kPa	1.255 mPa·s
373.15 K, 1160 kPa	1.254 mPa·s
373.15 K, 2590 kPa	1.264 mPa·s
373.15 K, 2600 kPa	1.264 mPa·s
373.15 K, 5080 kPa	1.302 mPa·s and 1.301 mPa·s and 1.303 mPa·s
373.15 K, 7600 kPa	1.342 mPa·s and 1.341 mPa·s
373.15 K, 7610 kPa	1.341 mPa·s
373.15 K, 10090 kPa	1.375 mPa·s
373.15 K, 10130 kPa	1.374 mPa·s
373.15 K, 15060 kPa	1.441 mPa·s
373.15 K, 15070 kPa	1.443 mPa·s
373.15 K, 20220 kPa	1.518 mPa·s
373.15 K, 20230 kPa	1.518 mPa·s
373.15 K, 20250 kPa	1.516 mPa·s
373.15 K, 29920 kPa	1.669 mPa·s
373.15 K, 29980 kPa	1.667 mPa·s
373.15 K, 30000 kPa	1.667 mPa·s
373.15 K, 50030 kPa	1.976 mPa·s [middle of 4 runs]
373.15 K, 65350 kPa	2.231 mPa·s and 2.229 mPa·s
